Data from patent publication US20110009351A1, “SCREENING ASSAY TO IDENTIFY CORRECTORS OF PROTEIN TRAFFICKING DEFECTS” (Traffick Therepeutics Inc., priority 2007, published 2011).
Counter-ions that a name gives are not always drawn. Like-named read-outs stand apart in the source and are kept apart here.

Columns and labels:
[1] = molecular target: T1, F508del CFTR (Homo sapiens, UniProt P13569, DEL508-508); experiment: YFP fluorescence quenching functional assay (iodide influx), HEK293 cells with F508del CFTR and halide sensitive YFP; type: cell-based; conditions: for remaining activity at 10 µM: read-out: % YFP quench
T1 construct: expressed in transfected cells; host or cells: HEK293 Griptite cells stably expressing F508del CFTR, transiently transfected with halide-sensitive eYFP
T1 sequence (P13569 with tags, fused parts or gaps DEL508-508): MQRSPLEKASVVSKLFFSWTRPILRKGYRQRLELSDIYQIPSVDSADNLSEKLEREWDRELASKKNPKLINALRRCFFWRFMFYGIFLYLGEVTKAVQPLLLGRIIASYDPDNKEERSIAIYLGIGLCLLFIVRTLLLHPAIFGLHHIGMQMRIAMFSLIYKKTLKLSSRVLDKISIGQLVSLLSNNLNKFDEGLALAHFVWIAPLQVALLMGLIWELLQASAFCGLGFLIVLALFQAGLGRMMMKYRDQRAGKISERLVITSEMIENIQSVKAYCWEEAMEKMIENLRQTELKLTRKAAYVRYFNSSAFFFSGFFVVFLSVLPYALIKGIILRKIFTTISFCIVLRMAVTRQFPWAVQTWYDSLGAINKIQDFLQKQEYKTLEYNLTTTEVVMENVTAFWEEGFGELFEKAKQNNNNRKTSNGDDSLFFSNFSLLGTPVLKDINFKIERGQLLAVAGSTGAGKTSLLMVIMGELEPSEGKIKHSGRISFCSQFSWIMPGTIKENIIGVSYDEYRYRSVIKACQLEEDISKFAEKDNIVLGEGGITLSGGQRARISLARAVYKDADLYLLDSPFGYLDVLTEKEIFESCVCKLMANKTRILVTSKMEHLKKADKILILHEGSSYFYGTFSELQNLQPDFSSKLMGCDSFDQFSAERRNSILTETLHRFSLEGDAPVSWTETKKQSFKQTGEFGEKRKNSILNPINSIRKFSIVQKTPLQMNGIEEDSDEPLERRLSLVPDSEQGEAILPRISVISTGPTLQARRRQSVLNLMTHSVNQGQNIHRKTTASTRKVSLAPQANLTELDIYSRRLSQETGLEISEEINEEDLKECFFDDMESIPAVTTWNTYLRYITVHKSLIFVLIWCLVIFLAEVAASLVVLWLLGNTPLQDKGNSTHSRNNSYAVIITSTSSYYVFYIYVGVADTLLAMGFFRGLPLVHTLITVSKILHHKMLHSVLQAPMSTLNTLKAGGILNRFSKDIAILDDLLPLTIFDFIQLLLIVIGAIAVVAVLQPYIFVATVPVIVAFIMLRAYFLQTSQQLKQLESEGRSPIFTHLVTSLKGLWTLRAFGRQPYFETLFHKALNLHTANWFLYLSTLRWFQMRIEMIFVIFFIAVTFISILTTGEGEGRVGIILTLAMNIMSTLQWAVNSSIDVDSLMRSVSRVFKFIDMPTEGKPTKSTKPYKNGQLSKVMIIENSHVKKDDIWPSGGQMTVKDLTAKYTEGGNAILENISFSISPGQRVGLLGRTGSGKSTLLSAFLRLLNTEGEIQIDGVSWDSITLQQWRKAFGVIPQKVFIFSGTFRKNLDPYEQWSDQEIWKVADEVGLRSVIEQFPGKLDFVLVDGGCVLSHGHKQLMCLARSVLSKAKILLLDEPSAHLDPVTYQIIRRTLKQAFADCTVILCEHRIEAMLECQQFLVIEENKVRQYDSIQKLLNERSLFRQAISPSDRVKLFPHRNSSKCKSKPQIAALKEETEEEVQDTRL
Protocol: In addition to the MDS compounds, the 1120 Prestwick Library compounds were screened. (See FIGS. 7 to 12.) Of the compounds, one qualified as a “strong” hit, 3 as “medium” hits and 57 as “weak” hits. The Z score for the assay was 0.62. The top 50 hits were further tested in a counter screen in which the halide sensitive fluorescent compound (YFP) was expressed inside cells (Table 2). After incubation with the test compounds the ability of the cells to uptake iodide was measure by decreasing YFP fluorescence. In these cells this can only occur if functional CFTR is present at the cell surface (FIG. 7). The hits were also tested for the appearance of the Band C form of CFTR. […] The functionality of the compounds was further studied by the use of Iodide efflux assays for each compound in both BHK and the more physiologically relevant CFBE cells. […] FIG. 10 is a table of results for the 15 hit compounds which summarizes many experiments. […] The results for the best 15 compounds from the Prestwick Library, or “Prestwick 15”, are shown FIGS. 8, 9 and 10.
Strongly adhesive Human […] Kidney cells stably expressing both the human macrophage scavenger receptor (HEK293 Griptite, Invitrogen) and F508del CFTR were plated in 96-well plates and transiently transfected with pcDNA3 plasmid encoding a halide sensitive variant of eYFP. After 24-48 h later cells were exposed to 10 μM test compound in triplicate and incubated for an additional 24 h. Cells were stimulated for 20 minutes with a in a buffer containing 25 μM forskolin, 45 μM IBMX and 50 μM genistein final concentration. The high content screening assay was performed using a Cellomics platform. Iodide was added robotically to a final concentration of 50 mM and the resulting decrease in fluorescence was measured. Images were taken at time 0 and stored for subsequent use when calculating a mask so that only those cells that express YFP at time 0 are measured. The quenching was detected in 15 images taken over the course of an experiment lasting 40 seconds. Each test compound was compared to the following two controls: a negative control without drugs to assess photobleaching that may occur when the same field of view is repeatedly imaged, and a positive control with cells treated with a known potentiator. Results were generated from 150-300 cells per well.

[2] = molecular target: ΔF508-CFTR (Homo sapiens, UniProt P13569, DEL508-508); type: cell-based; design: which was then ligated into full length pNUT-CFTR linearized using Hpa1 and Pml1; expressed in transfected cells; conditions: for hit in screen (class letter) / ΔF508-CFTR correctors identified by highthroughput screening: hit class: BHK cells; for ΔF508-CFTR correctors identified by highthroughput screening: hit class: 37° C.
ΔF508-CFTR, sequence (P13569 with tags, fused parts or gaps DEL508-508): as above
Protocol: BHK cells expressing 3HA-tagged ΔF508-CFTR between passages 5-8 were seeded in 96-well plates (Corning half area, black-sided, clear bottom) at 15,000 cells per well and incubated with culture medium for 24 h at 37° C. Each well was then treated with a different test compound (80 compounds per plate) for 24 h at 20 μM final concentration. The remaining 16 wells on each plate were used for control conditions. […] Cells were fixed in a 4% paraformaldehyde solution, washed with PBS, and blocked with PBS containing 5% fetal bovine serum (FBS) for 1 hat 4° C.
Blocking solution was replaced with 15 μl of primary antibody solution containing 1% FBS and mouse monoclonal anti-HA antibody (1:150 dilution, Sigma) in PBS. The plates were sealed and left at 4° C. overnight. After three washes with 100 μl PBS, cells were incubated for 1 h with 15 μl of secondary antibody solution containing 1% FBS and anti-mouse IgG conjugated with FITC (1:100 dilution, Sigma) in PBS. Cells were again washed three times with 100 μl of PBS and analyzed in a plate reader (Analyst™ HT96.384, Biosystems; 488 nm excitation/510 nm emission). […] The mean fluorescence of four untreated wells was used as the background signal when calculating deviations of the 80 compound-treated wells. Hits were then cherry-picked into reservoir plates and re-tested in duplicate using the same assay.
BHK cells expressing ΔF508-CFTR were incubated with test compounds (20 μM) for 24 hours at 37° C. in a 96 well format. Plasma membrane expression of ΔF508-CFTR was then assayed by immunofluorescence using a primary antibody directed against the inserted 3HA tag and a secondary antibody conjugated with a fluorophore (FITC). […] The positive compounds were selected and retested in duplicate to obtain an N of 3. At the re-screening stage, the intrinsic fluorescence of each potential hit was also measured and the fluorescent ones were not considered further.
Screening was performed using BHK cells that stably express F508-CFTR bearing three tandem haemagglutinin-epitope tags (3HA) and linker sequences in the fourth extracellular loop after amino acid 901 (Howard et al., 1995; Carlile et al., 2007; Robert et al., 2008). […] Screening was performed using the Prestwick Chemical Library of 1120 high-purity compounds.

[3] = HEK293, 10 μM, 24 h, nc = 100% pc = 69.2
[4] = Prestwick library, initial corrector assay
[5] = Prestwick library, initial corrector assay, standard deviations above untreated controls
[6] = 10 μM, 24 h, nc = 100% pc = 69.2
[7] = Microsource Discovery library, medium and weak hits, 20 μM, 24 hours
[8] = Microsource Discovery library, 20 μM, 24 hours

| Molecule | remaining activity at 10 µM [1, 3] [%] | hit in screen (class letter) [2, 4] | hit in screen (score) [2, 5] | further results |
| --- | --- | --- | --- | --- |
| Nc1ncnc2c1ncn2[C@@H]1O[C@H](COP(=O)(O)O)[C@@H](O)[C@H]1O.O [Adenosine 5′-monophosphate monohydrate] | 78 | W (Medium and weak hits were defined as compounds giving a cell fluorescence signal that was between 2 and 3 or 1 and 2 standard deviations, respectively, above untreated control wells) | 1.1 | – |
| CN(Cc1cnc2nc(N)nc(N)c2n1)c1ccc(C(=O)N[C@@H](CCC(=O)O)C(=O)O)cc1 (racemic) [Amethopterin (R, S)] | – | W (Medium and weak hits were defined as compounds giving a cell fluorescence signal that was between 2 and 3 or 1 and 2 standard deviations, respectively, above untreated control wells) | 1.2 | % YFP quench [1, 6]: 109% |
| C[C@]12CC[C@@H]3c4ccc(OS(=O)(=O)O)cc4CC[C@H]3[C@@H]1CCC2=O [Estropipate] | 83 | W (Medium and weak hits were defined as compounds giving a cell fluorescence signal that was between 2 and 3 or 1 and 2 standard deviations, respectively, above untreated control wells) | 1.0 | – |
| CCOC(=O)n1ccn(C)c1=S [Carbimazole] | 95 | W (Medium and weak hits were defined as compounds giving a cell fluorescence signal that was between 2 and 3 or 1 and 2 standard deviations, respectively, above untreated control wells) | 1.0 | – |
| C[C@]12C[C@H](O)[C@H]3[C@@H](CCC4=CC(=O)CC[C@@]43C)[C@@H]1CC[C@@H]2C(=O)CO [Corticosterone] | 90 | W (Medium and weak hits were defined as compounds giving a cell fluorescence signal that was between 2 and 3 or 1 and 2 standard deviations, respectively, above untreated control wells) | 1.1 | – |
| CC1=CC(=O)C2=C(C)C[C@H](O)[C@@H]3[C@H](OC(=O)[C@H]3C)[C@H]12 [Austricine hydrate] | 91 | W (Medium and weak hits were defined as compounds giving a cell fluorescence signal that was between 2 and 3 or 1 and 2 standard deviations, respectively, above untreated control wells) | 1.1 | – |
| C[C@]12CC[C@H](O)C[C@@H]1CC[C@@H]1[C@@H]2CC[C@]2(C)C(=O)CC[C@@H]12 [Epiandrosterone] | – | – | – | remaining activity at 10 µM ([1]; HEK293, 24 h): 93%; hit in screen (score) [2]: W 1.0; signal in the trafficking assay [2]: consistently elevated signal |
| OCC(O)CN1CCN(c2ccccc2)CC1 (racemic) [Dropropizine (R, S)] | – | W (Medium and weak hits were defined as compounds giving a cell fluorescence signal that was between 2 and 3 or 1 and 2 standard deviations, respectively, above untreated control wells) | 1.2 | % YFP quench [1, 6]: 92% |
| O=C1CCC(N2C(=O)c3ccccc3C2=O)C(=O)N1 (centres unmarked) [Thalidomide] | 92 | M (Medium and weak hits were defined as compounds giving a cell fluorescence signal that was between 2 and 3 or 1 and 2 standard deviations, respectively, above untreated control wells) | 2.0 | – |
| CCN1C[C@]2(COC)CC[C@H](O)[C@@]34C5C[C@@H]6[C@@H](OC)C[C@](O)(C(CC23)C14)C5[C@H]6OC(C)=O (some centres unmarked) [Condelphine] | – | W (Medium and weak hits were defined as compounds giving a cell fluorescence signal that was between 2 and 3 or 1 and 2 standard deviations, respectively, above untreated control wells) | 1.6 | remaining activity at 10 µM ([1]; HEK293, 24 h): 97% |
| c1ccc2c(c1)OCC(C1=NCCN1)O2 (centres unmarked) [Idazoxan hydrochloride] | 103 | W (Medium and weak hits were defined as compounds giving a cell fluorescence signal that was between 2 and 3 or 1 and 2 standard deviations, respectively, above untreated control wells) | 1.0 | – |
| O=C([O-])c1ccccc1-c1c2cc(Br)c(=O)cc-2oc2[c]([Hg+])c([O-])c(Br)cc12.[Na+].[Na+].[OH-] [Merbromin] | – | S (strong hits were initially identified as those compounds giving a cell fluorescence signal that was ≧3 standard deviations (SD) above untreated control wells) | 3.6 | % YFP quench [1, 6]: 107% |
| Cc1[nH]ccc2c1[nH]c1cc(=O)ccc12 [Harmol hydrochloride dihydrate] | 92 | – | – | – |
| didectylkhivorin | – | – | – | signal in the trafficking assay [2, 7]: consistently elevated signal |
| CC1(C)[C@@H](O[C@H]2O[C@H](C(=O)O)[C@@H](O)[C@H](O)[C@H]2O[C@@H]2O[C@H](C(=O)O)[C@@H](O)[C@H](O)[C@H]2O)CC[C@]2(C)[C@H]3C(=O)C=C4[C@@H]5C[C@@](C)(C(=O)O)CC[C@]5(C)CC[C@@]4(C)[C@]3(C)CC[C@@H]12 [glycyrrhizic acid] | – | – | – | ΔF508-CFTR correctors identified by highthroughput screening: hit class [2, 8]: strong hits |
| CN(Cc1cc(Br)cc(Br)c1N)C1CCCCC1 [bromhexine] | – | – | – | signal in the trafficking assay [2, 7]: consistently elevated signal |
| CC(=O)O[C@H]1C[C@@H](OC(C)=O)C(C)(C)[C@@H]2C[C@@H](OC(C)=O)[C@]3(C)[C@H](CC[C@@]4(C)[C@H](c5ccoc5)OC(=O)[C@H]5O[C@@]534)[C@@]12C [khivorin] | – | – | – | signal in the trafficking assay [2, 7]: consistently elevated signal |
| N.N.O=C([O-])C1(C(=O)[O-])CCC1.[Pt+2] [carboplatin] | – | – | – | ΔF508-CFTR correctors identified by highthroughput screening: hit class [2, 8]: strong hits |
| O=C1N[C@@H]2[C@@H](O)[C@@H](O)[C@H](O)[C@@H](CO)N2C1=O [kifunesine] | – | – | – | increase in signal, suitability as positive control for the corrector assay screen ([2]; kifunesine 100 μM, Sodium 4 Phenylbutyrate 1 mM, curcumin 40 μM, 24 hours): not sufficient to act as a positive control |
| C[C@]12CCC3C(CC[C@H]4C[C@@H](Cl)CC[C@]34C)C1CCC2=O (stereo partly drawn) [3-beta chloroandrostanone] | – | – | – | signal in the trafficking assay [2, 7]: consistently elevated signal |
| O=c1c(-c2ccc(O)cc2)coc2cc(O)ccc12 [daidzein] | – | – | – | signal in the trafficking assay [2, 7]: consistently elevated signal |
| 1-deacetoxy-1-oxo-3,7 dideactyl khivorin | – | – | – | signal in the trafficking assay [2, 7]: consistently elevated signal |
| COC(=O)c1c(Cl)c(Cl)c(C(=O)OC)c(Cl)c1Cl [dacthal] | – | – | – | ΔF508-CFTR correctors identified by highthroughput screening: hit class [2, 8]: strong hits |
| C[C@]12CC[C@H](O)CC1=CC[C@@H]1[C@@H]2CC[C@]2(C)C(=O)CC[C@@H]12 [dyhydroepiandrosterone] | – | – | – | signal in the trafficking assay [2, 7]: consistently elevated signal |
| NC(=O)N/N=C/c1ccc([N+](=O)[O-])o1 [Nitrofural] | 94 | – | – | – |
| O=C(N[C@H](CO)[C@H](O)c1ccc([N+](=O)[O-])cc1)C(Cl)Cl [chloramphenicol] | – | – | – | ΔF508-CFTR correctors identified by highthroughput screening: hit class [2, 8]: strong hits |
